The values below come from patent US10787432B2, “N-[(pyridyloxy)propanyl]benzamides” (Boehringer Ingelheim International GmbH, priority 2016, dated 2020).

Test system in one data set: not listed separately
Put plainly: Assay C: Metabolic stability in human liver microsomes (Human MST). The following applies: pooled human liver microsomes, pH 7.6; human liver microsomes 1 mg/mL, compound 1 μM, 37° C., NADPH; read-out: Human MST t1/2. It counts as in vitro ADME. The procedure:
C. Assessment of Metabolic Stability in Human Liver Microsomes (Human MST)
The metabolic stability of the compounds according to the invention may be investigated as follows:
The metabolic degradation of the test compound is assayed at 37° C. with pooled human liver microsomes. The final incubation volume of 100 μL per time point contains TRIS buffer pH 7.6 at room temperature (0.1 M), MgCl2 (5 mM), microsomal protein (1 mg/mL) and the test compound at a final concentration of 1 μM. Following a short pre-incubation period at 37° C., the reactions are initiated by addition of beta-nicotinamide adenine dinucleotide phosphate, reduced form (NADPH, 1 mM), and terminated by transferring an aliquot into solvent after different time points. After centrifugation (10000 g, 5 min), an aliquot of the supernatant is assayed by LC-MS/MS for the amount of parent compound. The half-life (t1/2) is determined by the slope of the semi-logarithmic plot of the concentration-time profile.
Background: Microsomes from liver hold many membrane-bound enzymes, among them those of drug oxidation.
Turning to `CCN(C(=O)c1ccc(C)cc1-c1ncccn1)[C@@H](C)COc1ccc(C(F)(F)F)cn1` [Example 101], the half-life at 1 μM turned out to be 13 min.
On the same count and under the same terms, the value for `CCN(C(=O)c1ccc(F)c(F)c1-n1nccn1)[C@@H](C)COc1ccc(C(F)(F)F)cn1` [Example 91] was 18 min.
Take `CCN(C(=O)c1ccc(C)cc1-c1nnc(C)o1)[C@@H](C)COc1ccc(Cl)cn1` [Example 38]: the half-life at 1 μM was determined as 11 min.
Still for that read-out and setting: to `CCN(C(=O)c1ccc(C)cc1-c1nnc(C)o1)[C@@H](C)COc1ccc(OC(F)(F)F)cn1` [Example 121] belongs 15 min; to `CCN(C(=O)c1ccccc1-c1cnc(OC)nc1)[C@@H](C)COc1ccc(C(F)(F)F)cn1` [Example 79], 12 min; to `CCN(C(=O)c1ccc(OC)cc1-c1ncccn1)[C@@H](C)COc1ccc(C(F)(F)F)cn1` [Example 118], 15 min.
On the same count and under the same terms, to `CCN(C(=O)c1ccccc1-n1nccn1)[C@@H](C)COc1ncc(C(F)(F)F)cc1F` [Example 47] belongs 21 min; to `CCN(C(=O)c1cccc(F)c1-n1nccn1)[C@@H](C)COc1ncc(Br)cc1F` [Example 112], 67 min; to `CCN(C(=O)c1cc(OC)ccc1-n1nccn1)[C@@H](C)COc1ccc(C(F)(F)F)cn1` [Example 15], 16 min.

The next data set deals with T1, human Orexin 1 receptor (Homo sapiens, UniProt O43613).
T1 construct: stably expressing the full-length human Orexin 1 receptor; expressed in transfected cells; host or cells: CHO-K1 (CHO-K1/hOX1), co-expressing aequorin
T1 sequence (O43613 1-425): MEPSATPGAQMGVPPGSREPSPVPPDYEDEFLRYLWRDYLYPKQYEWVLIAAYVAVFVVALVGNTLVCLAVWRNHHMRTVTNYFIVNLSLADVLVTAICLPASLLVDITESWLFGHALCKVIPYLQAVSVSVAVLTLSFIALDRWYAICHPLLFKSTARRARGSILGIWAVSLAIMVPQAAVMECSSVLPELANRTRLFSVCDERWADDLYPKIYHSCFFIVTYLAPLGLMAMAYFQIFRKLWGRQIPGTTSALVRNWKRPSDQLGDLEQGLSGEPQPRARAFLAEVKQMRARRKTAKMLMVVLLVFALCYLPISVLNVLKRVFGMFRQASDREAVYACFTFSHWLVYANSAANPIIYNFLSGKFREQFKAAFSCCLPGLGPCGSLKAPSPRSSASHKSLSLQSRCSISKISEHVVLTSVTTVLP
Put plainly: Assay A: In vitro testing of OX1R potency: OX1R IP1 (HTRF, CHO-K1/hOX1 cells, Orexin A as agonist). It counts as cell-based. The following applies: OX1R Kb at 0.5 nM Orexin A. Background: In TR-FRET formats the signal depends on donor and acceptor labels being close together.
Turning to `CCN(C(=O)c1ccc(C)cc1-c1ncccn1)[C@@H](C)COc1ccc(C(F)(F)F)cn1` [Example 101], the “OX2R Kb/OX1R Kb” value was 79.
Still for that read-out and setting: the value for `CCN(C(=O)c1ccc(C)cc1-c1nnc(C)o1)[C@@H](C)COc1ccc(Cl)cn1` [Example 38] was 313; that for `CCN(C(=O)c1ccc(C)cc1-c1nnc(C)o1)[C@@H](C)COc1ccc(OC(F)(F)F)cn1` [Example 121] was 314.
Same read-out and setting: the value for `CCN(C(=O)c1ccccc1-c1cnc(OC)nc1)[C@@H](C)COc1ccc(C(F)(F)F)cn1` [Example 79] was 66; that for `CCN(C(=O)c1ccccc1-n1nccn1)[C@@H](C)COc1ncc(C(F)(F)F)cc1F` [Example 47] was 130; that for `CCN(C(=O)c1cccc(F)c1-n1nccn1)[C@@H](C)COc1ncc(Br)cc1F` [Example 112] was 168.

Still in this data set, the particulars now being: OX1R Kb at 50 nM Orexin A.
For `CCN(C(=O)c1ccc(F)c(F)c1-n1nccn1)[C@@H](C)COc1ccc(C(F)(F)F)cn1` [Example 91], the “OX2R Kb/OX1R Kb” value amounted to 340.
As for `CCN(C(=O)c1ccc(C)cc1-c1nnc(C)o1)[C@@H](C)COc1ccc(OC(F)(F)F)cn1` [Example 121], the “OX2R Kb/OX1R Kb” value came to 293.
With `CCN(C(=O)c1ccccc1-c1cnc(OC)nc1)[C@@H](C)COc1ccc(C(F)(F)F)cn1` [Example 79], the “OX2R Kb/OX1R Kb” value is recorded as 58.
On to `CCN(C(=O)c1ccc(OC)cc1-c1ncccn1)[C@@H](C)COc1ccc(C(F)(F)F)cn1` [Example 118], for which the “OX2R Kb/OX1R Kb” value is given as 2875.
The same measure, in the same setting: the value for `CCN(C(=O)c1ccccc1-n1nccn1)[C@@H](C)COc1ncc(C(F)(F)F)cc1F` [Example 47] was 272.
For the molecule `CCN(C(=O)c1cccc(F)c1-n1nccn1)[C@@H](C)COc1ncc(Br)cc1F` [Example 112], the “OX2R Kb/OX1R Kb” value was 192.
Still for that read-out and setting: the value for `CCN(C(=O)c1cc(OC)ccc1-n1nccn1)[C@@H](C)COc1ccc(C(F)(F)F)cn1` [Example 15] was 250.

Still in this data set, the particulars now being: Orexin A 0.5 nM; read-out: OX1R Kb (Orexin A concentration used).
For the molecule `CCN(C(=O)c1ccc(C)cc1-c1ncccn1)[C@@H](C)COc1ccc(C(F)(F)F)cn1` [Example 101], the Kb amounted to 0.38 nM.
`CCN(C(=O)c1ccc(C)cc1-c1nnc(C)o1)[C@@H](C)COc1ccc(Cl)cn1` [Example 38]: the Kb is 2.8 nM.
As to `CCN(C(=O)c1ccc(C)cc1-c1nnc(C)o1)[C@@H](C)COc1ccc(OC(F)(F)F)cn1` [Example 121], the Kb was 1.4 nM.
On the same count and under the same terms, the value for `CCN(C(=O)c1ccccc1-c1cnc(OC)nc1)[C@@H](C)COc1ccc(C(F)(F)F)cn1` [Example 79] was 1.4 nM.
The same measure, in the same setting: to `CCN(C(=O)c1ccccc1-n1nccn1)[C@@H](C)COc1ncc(C(F)(F)F)cc1F` [Example 47] belongs 0.67 nM; to `CCN(C(=O)c1cccc(F)c1-n1nccn1)[C@@H](C)COc1ncc(Br)cc1F` [Example 112], 0.57 nM.

Staying with this data set, now noted: Orexin A 50 nM; read-out: OX1R Kb (Orexin A concentration used).
As for `CCN(C(=O)c1ccc(F)c(F)c1-n1nccn1)[C@@H](C)COc1ccc(C(F)(F)F)cn1` [Example 91], the Kb came out at 0.2 nM.
With `CCN(C(=O)c1ccc(C)cc1-c1nnc(C)o1)[C@@H](C)COc1ccc(OC(F)(F)F)cn1` [Example 121], the Kb was 1.5 nM.
As to `CCN(C(=O)c1ccccc1-c1cnc(OC)nc1)[C@@H](C)COc1ccc(C(F)(F)F)cn1` [Example 79], the Kb was 1.6 nM.
Same read-out and setting: the value for `CCN(C(=O)c1ccc(OC)cc1-c1ncccn1)[C@@H](C)COc1ccc(C(F)(F)F)cn1` [Example 118] was 0.032 nM; that for `CCN(C(=O)c1ccccc1-n1nccn1)[C@@H](C)COc1ncc(C(F)(F)F)cc1F` [Example 47] was 0.32 nM; that for `CCN(C(=O)c1cccc(F)c1-n1nccn1)[C@@H](C)COc1ncc(Br)cc1F` [Example 112] was 0.5 nM.
Same read-out and setting: the value for `CCN(C(=O)c1cc(OC)ccc1-n1nccn1)[C@@H](C)COc1ccc(C(F)(F)F)cn1` [Example 15] was 0.06 nM.

The next data set deals with T2, human orexin 2 receptor (Homo sapiens, UniProt O43614).
T2 construct: stably expressing the full-length human orexin 2 receptor; expressed in transfected cells; host or cells: CHO-K1 (CHO-K1/hOX2), co-expressing aequorin
T2 sequence (O43614 1-444): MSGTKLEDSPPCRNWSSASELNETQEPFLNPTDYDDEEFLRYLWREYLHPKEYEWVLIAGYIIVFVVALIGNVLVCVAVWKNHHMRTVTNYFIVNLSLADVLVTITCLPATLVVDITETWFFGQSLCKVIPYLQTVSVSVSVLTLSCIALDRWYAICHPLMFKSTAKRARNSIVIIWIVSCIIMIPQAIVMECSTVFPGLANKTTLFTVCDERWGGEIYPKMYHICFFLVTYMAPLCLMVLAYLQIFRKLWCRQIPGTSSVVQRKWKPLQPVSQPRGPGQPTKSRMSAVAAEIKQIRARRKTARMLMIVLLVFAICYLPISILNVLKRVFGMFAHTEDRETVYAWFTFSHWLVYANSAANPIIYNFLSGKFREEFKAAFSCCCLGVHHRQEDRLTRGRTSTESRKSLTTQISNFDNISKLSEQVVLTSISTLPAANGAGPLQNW
Put plainly: Assay B: In vitro testing of OX2R potency: OX2R IP1 (HTRF, CHO-K1/hOX2 cells, Orexin A as agonist). The following applies: Orexin A 0.5 nM. It is filed as cell-based. An excerpt:
Activation of the orexin receptors expressed in cell lines results in an increase in intracellular IP3 concentration. IP1, a downstream metabolite of IP3, accumulates in cells following receptor activation and is stable in the presence of LiCl. Using Homogeneous Time-Resolved Fluorescence technology with Lumi4-Tb cryptate (commercially available from Cisbio Bioassay.) and a suitable fluorescence plate reader. […] Chem. Genomics 2009, 3, 22-32. This technique is used to characterize pharmacological modification of the orexin receptors.
B. In Vitro Testing of OX2R Potency: OX2R IP1
IP1 measurements are performed in CHO-K1 cells stably expressing the full-length human orexin 2 receptor and the aequorin photoprotein. Cells are cultivated in Ham's nutrient mixture F12 medium with 10% fetal calf serum, in a 37° C., 95% humidity and 5% CO2 incubator. The CHO-K1/hOX2 cell mass is expanded to larger cell numbers. The cells are obtained as frozen cells in cryo-vials and stored until use at −150° C. The viability of the cells after thawing is >90%. In preparation for the assay, 24 hours before the assay, the cells are thawed at 37° C. and immediately diluted with cell culture medium. After centrifugation, the cell pellet is resuspended in medium and then distributed into the assay plates with a density of 5000 cells/25 μL per well. The plates are incubated for one hour at room temperature to reduce edge effects before they are incubated for 24 hours at 37° C./5% CO2. Compounds are prepared by a 8-point serial dilution in DMSO and a final dilution step into assay buffer (HBSS with 20 mM HEPES, 0.1% BSA and 50 mM LiCl, pH 7.4) to ensure a final DMSO concentration of 1% in the assay.
On the day of the assay, cells in the plate are washed twice with 60 μL assay buffer (20 μL buffer remained in the wells after washing), followed by adding 5 μL per well of compounds diluted in assay buffer. After 15 minutes of incubation at room temperature 5 μL per well of Orexin A peptide (final concentration: 0.5 nM) dissolved in assay buffer is added to the assay plate. The assay plate is incubated for 60 minutes at 37° C. Then 5 μL per well of Anti-IP1-Cryptate Tb solution and 5 μL per well of IP1-d2 dilution are added to all well of the plate and the plate is incubated for a further 60 minutes light protected at room temperature. The emission at 615 nm and 665 nm (Excitation wavelength: 320 nm) are measured using an EnVision reader (PerkinElmer). The ratio between the emission at 665 nm and 615 is calculated by the reader.
8-point four parametric non-linear curve fitting and determination of IC50 values and Hill slopes is performed using a regular analysis software e.g. AssayExplorer (Accelrys). In order to establish an agonist concentration independent parameter, Kb values are calculated using the following equation: IC50/((2+(A/EC50)n)^1/n−1) (with A=concentration agonist, EC50=EC50 agonist, n=Hill slope agonist) (see P. Leff, I. G. Dougall, Trends Pharmacol. Sci. 1993, 14(4), 110-112).
Kb values from Assay A (OX1R) and Assay B (OX2R) can then provide a selectivity ratio which is independent of the agonist (Orexin A) concentration.
The molecule `CCN(C(=O)c1ccc(C)cc1-c1ncccn1)[C@@H](C)COc1ccc(C(F)(F)F)cn1` [Example 101] gave a Kb of 30 nM.
Still for that read-out and setting: the value for `CCN(C(=O)c1ccc(F)c(F)c1-n1nccn1)[C@@H](C)COc1ccc(C(F)(F)F)cn1` [Example 91] was 68 nM; that for `CCN(C(=O)c1ccc(C)cc1-c1nnc(C)o1)[C@@H](C)COc1ccc(Cl)cn1` [Example 38] was 877 nM.
The same measure, in the same setting: the value for `CCN(C(=O)c1ccc(C)cc1-c1nnc(C)o1)[C@@H](C)COc1ccc(OC(F)(F)F)cn1` [Example 121] was 440 nM; that for `CCN(C(=O)c1ccccc1-c1cnc(OC)nc1)[C@@H](C)COc1ccc(C(F)(F)F)cn1` [Example 79] was 92 nM; that for `CCN(C(=O)c1ccc(OC)cc1-c1ncccn1)[C@@H](C)COc1ccc(C(F)(F)F)cn1` [Example 118] was 92 nM.
`CCN(C(=O)c1ccccc1-n1nccn1)[C@@H](C)COc1ncc(C(F)(F)F)cc1F` [Example 47] yielded a Kb of 87 nM.
Take `CCN(C(=O)c1cccc(F)c1-n1nccn1)[C@@H](C)COc1ncc(Br)cc1F` [Example 112]: the Kb came to 96 nM.
Still for that read-out and setting: the value for `CCN(C(=O)c1cc(OC)ccc1-n1nccn1)[C@@H](C)COc1ccc(C(F)(F)F)cn1` [Example 15] was 15 nM.
